The record followed here is patent US20100137208A1, “INTRATUMORALLY ADMINISTERED LACTOFERRIN IN THE TREATMENT OF MALIGNANTNEOPLASMS AND OTHER HYPERPROLIFERATIVE DISEASES” (priority 2002, published 2010).

Assay [1] relates to murine squamous carcinoma cell line (SCCVII). Kind of assay: SCCVII floor-of-mouth tumor growth, oral rhLF and/or cisplatin. In kind it is in vivo, C3H mice. The note with it: in combination rhLF 200 mg/Kg oral days 5-12. Here is the method: A murine squamous carcinoma cell line (SCCVII) was injected into the floor of the mouth through the neck skin of immunocompetent C3H mice (Day 0). […] Tumors were measured in three dimensions with calipers.
Tumor-bearing mice were randomized into a control group and seven groups receiving rhLF and/or cisplatin. RhLF (4 mg; 200 mg/Kg) was administered once daily by oral gavage for 8 days on days 5 through 12. Cisplatin was administered as a single dose of 5 mg/Kg given intraperitoneally either at the start of rhLF (day 5), in the middle (day 8) or at the end (day 12) of rhLF therapy. Animals were sacrificed on day 12 post-implantation and the residual tumor masses were measured and processed for later additional analyses.
A murine squamous carcinoma cell line (SCCVII) was injected into the floor of the mouth through the neck skin of immunocompetent C3H mice (Day 0) as described in Example 6. On Day 5 days after initial implantation, tumors were measured for the baseline, then treated with either cisplatin (Day 8, i.p., 5 mg/kg) alone or cisplatin plus three doses of oral rhLF (daily by gavage for 7-8 days on days 5 through 11/12). Animals were sacrificed on Day 11/12 and tumors measured.

Assay [2] has the same test system. Briefly: SCCVII floor-of-mouth tumor growth, docetaxel with or without oral rhLF. Format: in vivo, C3H mice. The note with it: docetaxel i.v. bolus 31.3 mg/kg Day 8, in combination rhLF 200 mg/kg oral days 5 to 12. As to the method: A murine squamous carcinoma cell line (SCCVII) was injected into the floor of the mouth through the neck skin of immunocompetent C3H mice (Day 0) as described in Example 7. On Day 5 after initial implantation, tumors were measured for the baseline, then treated with either oral placebo alone (once daily from days 5 to 12; 6 animals), placebo and docetaxel (i.v. bolus of 31.3 mg/kg docetaxel on Day 8; 9 animals), or docetaxel plus oral rhLF (200 mg/kg, administered once daily by gavage from days 5 to 12; 9 animals). Animals were sacrificed on Day 14 and tumors measured. Docetaxel alone caused an inhibition of tumor growth relative to placebo and the combination of rhLF and docetaxel induced a further growth inhibition.

Take `N.N.[Cl][Pt][Cl]` [CP, Cisplatin]: the “TGI (%) Relative to Placebo” value in assay [1] (cisplatin 5 mg/Kg i.p. on day 5) worked out at 68%; in assay [1] (cisplatin 5 mg/Kg i.p. on day 8) it was 6%; in assay [1] (cisplatin 5 mg/Kg i.p. on day 12) it was 42%; in assay [1] (pooled cisplatin schedules (day 5, 8, 12)), 38%.

As for `CC(=O)O[C@@]12CO[C@@H]1C[C@H](O)[C@@]1(C)C(=O)[C@H](O)C3=C(C)[C@@H](OC(=O)[C@H](O)[C@@H](NC(=O)OC(C)(C)C)c4ccccc4)C[C@@](O)([C@@H](OC(=O)c4ccccc4)[C@H]21)C3(C)C` [Docetaxel], in assay [2] (Day 14), the “TGI (%) Relative to Placebo” value was 59%. Also, the “Tumor Growth” value in assay [2] (measured Day 14) is 2,103.
